Assay type in all cases: cell-based
Assay [1] has as its system E. coli ML 4707. Put plainly: MIC, antibacterial spectrum (aerobic bacteria). To be noted: Escherichia coli, ML4707; E. coli ML 4707, Gram -, 10^6 cells/ml, aerobic; read-out: MIC.
Assay [2] concerns C. ramosum. The assay is described as follows: MIC, antibacterial spectrum (anaerobic bacteria). To be noted: Thomasclavelia ramosa; C. ramosum, Gram +, 10^6 cells/ml, anaerobic; read-out: MIC.
The subject of assay [3] is Streptococcus pneumoniae IID 552. Put plainly: MIC, antibacterial spectrum (aerobic bacteria). The conditions noted are these: IID552; Streptococcus pneumoniae IID 552, Gram +, 10^6 cells/ml, aerobic; read-out: MIC.
Assay [4] concerns P. aeruginosa IFO 12689. Put plainly: MIC, antibacterial spectrum (aerobic bacteria). To be noted: Pseudomonas aeruginosa, IFO12689; P. aeruginosa IFO 12689, Gram -, 10^6 cells/ml, aerobic; read-out: MIC.
Assay [5] deals with Peptostreptococcus anaerobius KYA 27337. Put plainly: MIC, antibacterial spectrum (anaerobic bacteria). The conditions noted are these: KYA27337; Peptostreptococcus anaerobius KYA 27337, Gram +, 10^6 cells/ml, anaerobic; read-out: MIC.
Assay [6] has as its system B. fragilis 25285. The assay is described as follows: MIC, antibacterial spectrum (anaerobic bacteria). To be noted: Bacteroides fragilis; B. fragilis 25285, Gram -, 10^6 cells/ml, anaerobic; read-out: MIC.
Assay [7] relates to P. cepacia KY 84. Put plainly: MIC, antibacterial spectrum (aerobic bacteria). To be noted: Burkholderia cepacia, KY84, P. cepacia KY 84, Gram -, 10^6 cells/ml.
The test system of assay [8] is Serratia marcescens IID 618. The assay is described as follows: MIC, antibacterial spectrum (aerobic bacteria). The conditions noted are these: IID618.
For assay [9], the system named is Veillonella parvula KYA 10790. Put plainly: MIC, antibacterial spectrum (anaerobic bacteria). The conditions noted are these: KYA10790, Veillonella parvula KYA 10790, Gram -, 10^6 cells/ml.
The subject of assay [10] is B. thetaiotaomicron (0661). Put plainly: MIC, antibacterial spectrum (anaerobic bacteria). The conditions noted are these: Bacteroides thetaiotaomicron; B. thetaiotaomicron (0661), Gram -, 10^6 cells/ml, anaerobic; read-out: MIC.
Assay [11] relates to E. faecalis IID 682. The assay is described as follows: MIC, antibacterial spectrum (aerobic bacteria). To be noted: Enterococcus faecalis, IID682; E. faecalis IID 682, Gram +, 10^6 cells/ml, aerobic; read-out: MIC.
Assay [12] has as its system Shigella sonnei IID 969. Put plainly: MIC, antibacterial spectrum (aerobic bacteria). To be noted: IID969, Shigella sonnei IID 969, Gram -, 10^6 cells/ml. As to the method:
Minimal inhibitory concentrations (MICs) were determined in accordance with the method recommended by Japan Society of Chemotherapy.

Assay [13] deals with Escherichia coli NIHJ JC-2. Put plainly: MIC, antibacterial spectrum (aerobic bacteria). To be noted: NIHJJC2, Escherichia coli NIHJ JC-2, Gram -, 10^6 cells/ml.
Assay [14] concerns Acinetobacter anitratus IID 876. Put plainly: MIC, antibacterial spectrum (aerobic bacteria). The conditions noted are these: Acinetobacter calcoaceticus, IID876; Acinetobacter anitratus IID 876, Gram -, 10^6 cells/ml, aerobic; read-out: MIC.
Assay [15] deals with Pseudomonas aeruginosa V-1. The assay is described as follows: MIC, antibacterial spectrum (aerobic bacteria). The conditions noted are these: V1.
In assay [16] the test system is B. distasonis 8503. The assay is described as follows: MIC, antibacterial spectrum (anaerobic bacteria). To be noted: Parabacteroides distasonis; B. distasonis 8503, Gram -, 10^6 cells/ml, anaerobic; read-out: MIC.
The subject of assay [17] is P. maltophilia GIFU 2491. Put plainly: MIC, antibacterial spectrum (aerobic bacteria). To be noted: Stenotrophomonas maltophilia, GIFU2491; P. maltophilia GIFU 2491, Gram -, 10^6 cells/ml, aerobic; read-out: MIC.
Assay [18] relates to P. cepacia GIFU 518. Put plainly: MIC, antibacterial spectrum (aerobic bacteria). The conditions noted are these: Burkholderia cepacia, GIFU518; P. cepacia GIFU 518, Gram -, 10^6 cells/ml, aerobic; read-out: MIC.
The mark [19] stands for this setting: Serratia marcescens IID 618, Gram -, 10^6 cells/ml, aerobic, read-out: MIC.
The mark [20] stands for this setting: Pseudomonas aeruginosa V-1, Gram -, 10^6 cells/ml, aerobic, read-out: MIC.

The values below come from patent EP0221541A2, “Quinolonecarboxylic acid derivatives and their preparation” (KYORIN PHARMACEUTICAL CO., LTD., priority 1985, dated 1987).

≈ marks a conversion by molar mass, not a printed value. Counter-ions that a name gives are not always drawn. Like-named read-outs stand apart in the source and are kept apart here. Where only a bound is given, the exact number is not on record here.

For the molecule `O=C(O)c1cn(C2CC2)c2c(F)c(N3CCC(CNCCO)C3)c(F)cc2c1=O` (stereo not shown) [Exp. 1, 1-Cyclopropyl-6,8-difluoro-1,4-dihydro-7-[3-(2-hydroxyethylaminomethyl)-1-pyrrolidinyl]-4-oxo-3-quinolinecarboxylic acid], the MIC was 0.05 µg/mL (≈ 0.123 µM) in [1]; 0.78 µg/mL (≈ 1.91 µM) in assay [2]; 0.05 µg/mL (≈ 0.123 µM) in [3]; 1.56 µg/mL (≈ 3.83 µM) in [4]; not above 0.05 µg/mL in [5]; 1.56 µg/mL (≈ 3.83 µM) in assay [6]. Moreover, the MIC was found to be 3.13 µg/mL (≈ 7.68 µM) in [7]; 0.39 µg/mL (≈ 0.957 µM) in assay [8] (setting [19]); 0.39 µg/mL (≈ 0.957 µM) in [9]; 3.13 µg/mL (≈ 7.68 µM) in [10]; 0.1 µg/mL (≈ 0.245 µM) in [11]; 0.05 µg/mL (≈ 0.123 µM) in assay [12]. The values for the MIC in [13], in assay [14] and in [15] (setting [20]) were 0.025 µg/mL (≈ 0.0614 µM), 0.2 µg/mL (≈ 0.491 µM) and 0.78 µg/mL (≈ 1.91 µM), respectively.

Consider `O=C(O)c1cn(C2CC2)c2cc(N3CCC(CNCCO)C3)c(F)cc2c1=O` (stereo not drawn) [Exp. 2, l-Cyclopropyl-6-fluoro-l,4-dihydro-7-[3-(2-hydroxyethylaminomethyl)-l-pyrrolidinyl]-4-oxo-3-quinolinecarboxylic acid hydrochloride], for which the MIC is 0.2 µg/mL in assay [1]; 25 µg/mL in assay [2]; 0.1 µg/mL in assay [3]; 6.25 µg/mL in assay [4]; 0.78 µg/mL in assay [5]; 50 µg/mL in [6]. The MIC is 1.56 µg/mL in assay [8] (Serratia marcescens); 3.13 µg/mL in assay [9]; more than 100 µg/mL in assay [10]; 0.78 µg/mL in [11]; 0.1 µg/mL in [12]; 0.1 µg/mL in assay [13]. Also, the MIC in [14] is 3.13 µg/mL; in [15] (Pseudomonas aeruginosa), 1.56 µg/mL.

`O=C(O)c1cn(C2CC2)c2c(Cl)c(N3CCC(CNCCO)C3)c(F)cc2c1=O` (stereo not shown) [Exp. 3, 8-Chloro-1-cyclopropyl-6-fluoro-1,4-dihydro-7-(3-(2-hydroxyethylaminomethyl)-1-pyrrolidinyl]-4-oxo-3-quinolinecarboxylic acid]: the MIC in [1] came out at 0.05 µg/mL (≈ 0.118 µM); in assay [2], 0.39 µg/mL (≈ 0.92 µM); in assay [3] it was 0.0125 µg/mL (≈ 0.0295 µM); in assay [4], 1.56 µg/mL (≈ 3.68 µM); in assay [5], 0.025 µg/mL (≈ 0.059 µM); in assay [6] it was 0.2 µg/mL (≈ 0.472 µM). Further, the MIC in assay [16] is 0.78 µg/mL (≈ 1.84 µM); in assay [8] (setting [19]), 0.2 µg/mL (≈ 0.472 µM); in assay [17], 0.2 µg/mL (≈ 0.472 µM); in assay [9], 0.1 µg/mL (≈ 0.236 µM); in assay [10], 1.56 µg/mL (≈ 3.68 µM); in [18], 1.56 µg/mL (≈ 3.68 µM). Moreover, the MIC in [11] was 0.1 µg/mL (≈ 0.236 µM); in assay [12] it was 0.05 µg/mL (≈ 0.118 µM); in assay [13] it was 0.0125 µg/mL (≈ 0.0295 µM); in assay [14], 0.1 µg/mL (≈ 0.236 µM); in [15] (setting [20]), 0.2 µg/mL (≈ 0.472 µM).
